Experimental data reported in ChEMBL document CHEMBL5131441, “De-novo designed β-lysine derivatives can both augment and diminish the proliferation rates of E. coli through the action of Elongation Factor P” (Bioorg Med Chem Lett, 2022).
pIC50: −log10 of the molar value. The source made the active and inactive calls. No cut-off for these calls is given here.

Experiments:
[1] = tested on: Escherichia coli; experiment: Antibacterial activity against Escherichia coli K12 harbouring elongation factor P deltayjeK variant assessed as restoration in bacterial growth at 500 uM incubated for 240 mins in presence of gentamicin by turbidity based analysis; format: functional, organism-based
[2] = Cytotoxicity against HEK293 cells assessed as cell survival rate at 50 uM relative to control; format: toxicity, cell-based; conditions: human, read-out: Survival
[3] = tested on: Escherichia coli; experiment: Antibacterial activity against Escherichia coli K12 harbouring elongation factor P deltayjeK variant assessed as reduction in bacterial growth at 500 uM incubated for 240 mins by turbidity based analysis; format: functional, organism-based
[4] = tested on: Escherichia coli; experiment: Antibacterial activity against Escherichia coli K12 harbouring wild type elongation factor P at 500 uM incubated for 240 mins by turbidity based analysis; format: functional, organism-based
[5] = Cytotoxicity against HEK293 cells assessed as cell survival rate at 500 uM relative to control; format: toxicity, cell-based; conditions: human, read-out: Survival
[6] = Cytotoxicity against HEK293 cells assessed as inhibition of cell growth; format: toxicity, cell-based; conditions: human
[7] = tested on: Escherichia coli; experiment: Antibacterial activity against Escherichia coli K12 harbouring elongation factor P delta-efp variant assessed as reduction in bacterial growth at 500 uM incubated for 240 mins by turbidity based analysis; format: functional, organism-based
[8] = tested on: Escherichia coli; experiment: Antibacterial activity against Escherichia coli K12 harbouring elongation factor P deltapoxA variant assessed as reduction in bacterial growth at 500 uM incubated for 240 mins by turbidity based analysis; format: functional, organism-based
[9] = tested on: Escherichia coli; experiment: Antibacterial activity against Escherichia coli K12 harbouring elongation factor P deltayjeK variant assessed as reduction in bacterial growth incubated for 240 mins by turbidity based analysis; format: functional, organism-based

| Compound | Activity [1] | Activity [3] | also measured |
| --- | --- | --- | --- |
| CCNCCCC(N)CC(=O)O (racemic) | Active | – | – |
| NCCCCCCCCNCCCC(N)CC(=O)O (racemic) | Active | – | – |
| CNCCCC(N)CC(=O)O (racemic) | Active | – | – |
| NCCCCCCCCCCNCCCC(N)CC(=O)O (racemic) | – | Active | viability at 50 µM [2]: 81%; Activity [4]: Active; viability at 500 µM [5]: 0%; pIC50 [6]: 3.60 |
| NC(CCCNCc1ccccc1)CC(=O)O (racemic) | Active | – | – |
| NCCCCC(N)CC(=O)O (racemic) | – | Active | – |
| NCCCCCCCCCCCCNCCCC(N)CC(=O)O (racemic) | – | Active | viability at 50 µM [2]: 14%; Activity [4]: Active; Activity [7]: Active; Activity [8]: Active |
| GENTAMICIN | – | Active | MIC [9]: 6 µg/mL |
| NCCCCCCCCCCCNCCCC(N)CC(=O)O (racemic) | – | – | Activity [4]: Active |
| CC(=O)NCCCC(N)CC(=O)O (racemic) | Active | – | – |
| CCCCCCNCCCC(N)CC(=O)O (racemic) | Active | – | pIC50 [6]: 3.96 |
| CCCNCCCC(N)CC(=O)O (racemic) | Active | – | – |
